Laboratory results: publication PMC7801616, “Surface hydrophobics mediate functional dimerization of CYP121A1 of Mycobacterium tuberculosis” (Scientific Reports, 2021)
Entries after “also recorded” stand apart in the source; their conditions may differ.

Experiments:
[1] = tested on: I166A_I180A CYP121A1 heme thiolate-CO complex
WT CYP121A1 dimer = tested on: WT CYP121A1 dimer; parameters: species or system Mycobacterium tuberculosis
[2] = target: I166A_I180A CYP121A1 (monomeric) (Mycobacterium tuberculosis, UniProt P9WPP7, I166A/I180A); type: binding
I166A_I180A CYP121A1 = type: binding, Mycobacterium tuberculosis
WT CYP121A1 (dimeric) = WT CYP121A1 (dimeric) (Mycobacterium tuberculosis, UniProt P9WPP7); type: binding; conditions: pH 7.4

Structure (SMILES): O=C1N[C@@H](Cc2ccc(O)cc2)C(=O)N[C@H]1Cc1ccc(O)cc1 [cYY, cyclo-L-Tyr-L-Tyr]
- increase of estimated half-life of the heme thiolate-CO complex by presence of substrate [1]: 50 fold

Structure (SMILES): Clc1ccc(COC(Cn2ccnc2)c2ccc(Cl)cc2Cl)c(Cl)c1 (stereo not drawn) [miconazole]
- effect of ligand saturation on dimer migration on gel filtration column (WT CYP121A1 dimer): did not cause CYP121A1 to migrate on the column as a monomer

Structure (SMILES): c1c[nH]cn1 [imidazole]
- decrease of Kd from dimeric to monomeric CYP121A1 [2]: 20 fold
- Kd ([2]; pH 7.4): 2.73 mM
- effect of ligand on thermal stability (I166A_I180A CYP121A1): destabilizing
- Kd (WT CYP121A1 (dimeric)): 46 mM

Structure (SMILES): Clc1ccc(COC(Cn2ccnc2)c2ccc(Cl)cc2Cl)cc1 (stereo not drawn) [econazole]
- effect of ligand saturation on dimer migration on gel filtration column (WT CYP121A1 dimer): did not cause CYP121A1 to migrate on the column as a monomer

Structure (SMILES): CC(=O)N1CCN(c2ccc(OCC3COC(Cn4ccnc4)(c4ccc(Cl)cc4Cl)O3)cc2)CC1 (stereo not drawn) [ketoconazole]
- stabilization of the CO-bound 450 nm species [1]: minimal stabilization of the 450 nm species
- effect of ligand on thermal stability (I166A_I180A CYP121A1): modest increase in the stability; also recorded: destabilizing
